Values quoted from earlier work in patent publication US20260272898A1 (Bayer Aktiengesellschaft, priority 2024, published 2026).

Settings: in vivo

Q: With `CCOc1ncc(C)c2c1[C@H](c1ccc(C#N)cc1OC)C(C(N)=O)=C(C)N2` [finerenone, (4S)-4-(4-cyano-2-methoxyphenyl)-5-ethoxy-2,8-dimethyl-1,4-dihydro-1,6-naphthyridine-3-carboxamide] as the compound, how does the half-life read?
A: Its half-life is “short”.
